Data on 9 compounds can be found in PubChem BioAssay (NCI).

Test systems include SN12C renal; HL-60(TB) leukemia; NCI-H226 lung; LOX IMVI melanoma; A549 NSCLC; HOP-92 NSCLC; HOP-62 NSCLC; KM12 colon; SNB-75 CNS; U251 CNS; OVCAR-4 ovarian; RPMI-8226 leukemia; SW-620 colon; HCT-116 colon; NCI-H460 lung; HCC-2998 colon; SR leukemia.
Assay in all cases: NCI anticancer screen, dose series, 48 h

Each structure is given as a SMILES string.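 Grown in 96-well plates, cells were treated for 48 hours with each compound at five concentrations. Insufficient inhibition: endpoint recorded as highest concentration tested. Definition used: TGI = concentration required for complete inhibition of growth.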

As for `CC(C)(C)OC(=O)N1CC(C)(C)N2C(=O)C3(CCCO3)C12` (stereo not drawn), the TGI in the assay with SN12C renal, in the assay on HL-60(TB) leukemia, in the assay with NCI-H226 lung, in the assay on LOX IMVI melanoma, with A549 NSCLC and in the assay with HOP-92 NSCLC was > 100 µM each time. In addition, the TGI in the assay with HOP-62 NSCLC was > 100 µM; with KM12 colon, > 100 µM; in the assay with SNB-75 CNS, > 100 µM; with U251 CNS, > 100 µM; with OVCAR-4 ovarian, > 100 µM; in the assay on RPMI-8226 leukemia it was 53.1 µM. Further, the TGI in the assay with SW-620 colon was 30.4 µM; with HCT-116 colon, > 100 µM; with NCI-H460 lung, > 100 µM; in the assay on HCC-2998 colon, > 100 µM.

Consider `C#CC(C)(C)OCCCCOc1cc(O)c2c(=O)c3ccccc3n(C)c2c1`, for which the TGI in the assay with SN12C renal, with HL-60(TB) leukemia, in the assay with SR leukemia, with NCI-H226 lung, in the assay on LOX IMVI melanoma and in the assay on A549 NSCLC was > 100 µM each time. The TGI in the assay with HOP-92 NSCLC, in the assay with HOP-62 NSCLC, in the assay with KM12 colon, in the assay with SNB-75 CNS, in the assay on U251 CNS and with OVCAR-4 ovarian was > 100 µM each time. Moreover, the TGI in the assay with RPMI-8226 leukemia, with SW-620 colon, in the assay with HCT-116 colon, in the assay with NCI-H460 lung and with HCC-2998 colon was > 100 µM throughout.

With `O=C(O[C@H]1[C@@H]2C=CO[C@@H](OC3OC(CO)C(O)C(O)C3O)[C@@H]2[C@@]2(CO)O[C@@H]12)c1ccc(O)c(O)c1` (stereo partly drawn), the TGI in the assay on SN12C renal, in the assay on HL-60(TB) leukemia, with LOX IMVI melanoma, with A549 NSCLC, in the assay on HOP-92 NSCLC and with HOP-62 NSCLC was > 100 µM each time. The TGI with KM12 colon, in the assay on SNB-75 CNS, with U251 CNS, in the assay on OVCAR-4 ovarian, in the assay with RPMI-8226 leukemia and in the assay with SW-620 colon was > 100 µM each time. The TGI with NCI-H460 lung and with HCC-2998 colon was > 100 µM in each case.

`O=c1[nH]nc(CNc2ccc(Cl)cc2Cl)c2ccccc12`: the TGI in the assay with SN12C renal is 97 µM; with HL-60(TB) leukemia it was > 100 µM; in the assay with SR leukemia, > 100 µM; with NCI-H226 lung it was 81.2 µM; in the assay on LOX IMVI melanoma, > 100 µM; in the assay with A549 NSCLC, 43.2 µM. Further, the TGI in the assay with HOP-92 NSCLC was 80.1 µM; with HOP-62 NSCLC, 43 µM; in the assay with KM12 colon it was > 100 µM; in the assay on SNB-75 CNS, 60.8 µM; in the assay with U251 CNS, 37.9 µM; in the assay on OVCAR-4 ovarian, 39.8 µM. For the same compound, the TGI is > 100 µM in the assay with RPMI-8226 leukemia; > 100 µM in the assay with SW-620 colon; 66.3 µM in the assay on HCT-116 colon; 84.5 µM in the assay with NCI-H460 lung; 44.5 µM in the assay on HCC-2998 colon.

Turning to `CSc1nc(NC2OCC(OC(C)=O)C(OC(C)=O)C2OC(C)=O)c2c(n1)OCC2=O` (stereo not drawn), the TGI in the assay with SN12C renal, in the assay on HL-60(TB) leukemia, in the assay with NCI-H226 lung, with LOX IMVI melanoma, in the assay on A549 NSCLC and in the assay with HOP-62 NSCLC was > 100 µM throughout. The TGI with KM12 colon, with SNB-75 CNS, with U251 CNS, in the assay on RPMI-8226 leukemia, with SW-620 colon and with HCT-116 colon was > 100 µM throughout. Further, the TGI in the assay with NCI-H460 lung and in the assay on HCC-2998 colon was > 100 µM in each case.

As to `CN1N=C2c3ccccc3OC(c3ccccc3)[C@H]2C1c1ccccc1` (stereo partly drawn), the TGI in the assay with SN12C renal, in the assay with HL-60(TB) leukemia, with SR leukemia, with NCI-H226 lung, in the assay on LOX IMVI melanoma and with A549 NSCLC was > 100 µM each time. Moreover, the TGI with HOP-92 NSCLC, with HOP-62 NSCLC, in the assay with KM12 colon, in the assay on U251 CNS, with OVCAR-4 ovarian and in the assay with RPMI-8226 leukemia was > 100 µM each time. For the same compound, the TGI in the assay on SW-620 colon, with HCT-116 colon, with NCI-H460 lung and in the assay on HCC-2998 colon was > 100 µM throughout.

Regarding `O=C1NC(=S)NC(=O)C1=CC1CC1`, the TGI in the assay on SN12C renal, in the assay with HL-60(TB) leukemia, in the assay with SR leukemia, in the assay on NCI-H226 lung, in the assay with LOX IMVI melanoma and with A549 NSCLC was > 100 µM throughout. Also, the TGI in the assay with HOP-92 NSCLC, in the assay with HOP-62 NSCLC, in the assay with KM12 colon, with SNB-75 CNS, in the assay on U251 CNS and in the assay on OVCAR-4 ovarian was > 100 µM each time. In addition, the TGI with RPMI-8226 leukemia, in the assay with SW-620 colon, in the assay with HCT-116 colon, in the assay on NCI-H460 lung and in the assay with HCC-2998 colon was > 100 µM each time.

Take `CCCCCCCC(=O)OC[C@H](C[As](=O)(O)O)OC(=O)CCCCCCC`: the TGI turned out to be 21.7 µM with SN12C renal; 22 µM in the assay with HL-60(TB) leukemia; 22.8 µM with SR leukemia; 17.6 µM with NCI-H226 lung; 18.7 µM in the assay with A549 NSCLC; 31.1 µM with HOP-92 NSCLC. Besides, the TGI in the assay with HOP-62 NSCLC is 33.1 µM; in the assay with SNB-75 CNS it was 32.3 µM; with U251 CNS, 19.1 µM; with OVCAR-4 ovarian, 29.1 µM; in the assay with RPMI-8226 leukemia, 32.4 µM; in the assay with SW-620 colon, 20 µM. Moreover, the TGI in the assay on HCT-116 colon came out at 19.2 µM; with HCC-2998 colon, 27.8 µM.

In the case of `Nc1ccn(CCOC(c2ccccc2)P(=O)(O)O)c(=O)n1` (stereo not drawn), the TGI with SN12C renal, in the assay on HL-60(TB) leukemia, with SR leukemia, with NCI-H226 lung, in the assay on LOX IMVI melanoma and with A549 NSCLC was > 100 µM throughout. Further, the TGI in the assay on KM12 colon, in the assay on SNB-75 CNS, in the assay on U251 CNS, in the assay with SW-620 colon, with HCT-116 colon and in the assay with NCI-H460 lung was > 100 µM in each case. In addition, the TGI in the assay with HCC-2998 colon is > 100 µM.
